Data published in EP0512570B1, “Urea derivatives, processes for the preparation thereof and pharmaceutical composition comprising the same” (FUJISAWA PHARMACEUTICAL CO., LTD., priority 1991, dated 1992).

Biological target: Acyl-CoA : cholesterol acyltransferase (ACAT)
Assay: Acyl-CoA : cholesterol acyltransferase (ACAT) inhibitory activity
Type: biochemical, Japanese white rabbits
Details: enzyme from mucosal microsome fraction of small intestine of rabbits fed 2% cholesterol diet; [14C]oleoyl-CoA and endogenous cholesterol, 37°C for 5 minutes
Method: Acyl-CoA : cholesterol acyltransferase (ACAT) inhibitory activity
ACAT activity was measured by the method of Heider et al. described in Journal of Lipid Research, Vol. 24, page 1127 (1983). The enzyme ACAT was prepared from the mucosal microsome fraction of the small intestine of male, 18-week old Japanese white rabbits which had been fed diet containing 2% cholesterol for 8 weeks. The inhibitory activity of compounds were calculated by measuring the amount of the labeled cholesterol ester produced from [¹⁴C]oleoyl-CoA and endogenous cholesterol as follows. [¹⁴C]oleoyl-CoA and microsome were incubated with test compounds at 37°C for 5 minutes. The reaction was stopped by the addition of chloroform-methanol (2:1, V/V). Cholesterol ester fraction in the chloroform-methanol extracts was isolated by thin-layer chromatography and was counted their label.

**Q.** With `CCCCCCCN(Cc1cc2ccccc2o1)C(=O)Nc1c(F)cc(F)cc1F` [Example 3 - (9), N-(Benzofuran-2-ylmethyl)-N-heptyl-N'-(2,4,6-trifluorophenyl)urea] as the compound, how does the IC50 read?
**A.** The IC50 was 73 nM.

**Q.** Which IC50 does the source give for `O=C(Nc1c(F)cc(F)cc1F)N(Cc1oc2ccccc2c1-c1ccccc1)C1CCCCCC1` [Example 3 - (10), N-Cycloheptyl-N-(3-phenylbenzofuran-2-ylmethyl)-N'-(2,4,6-trifluorophenyl)urea] here?
**A.** Its IC50 is 24 nM.

**Q.** With `CCCCCCCN(Cc1oc2ccc(CC)cc2c1-c1ccc(Cl)cc1)C(=O)Nc1c(F)cc(F)cc1F` [Example 3 - (35), N-[3-(4-Chlorophenyl)-5-ethylbenzofuran-2-ylmethyl]-N-heptyl-N'-(2,4,6-trifluorophenyl)urea] as the compound, how does the IC50 read?
**A.** The IC50 was 6.6 nM.

**Q.** Which IC50 does the source give for `Cc1ccc2oc(CN(Cc3ccc(F)cc3)C(=O)Nc3c(F)cc(F)cc3F)c(-c3ccc(Cl)cc3)c2c1` [Example 5 - (7), N-[3-(4-Chlorophenyl)-5-methylbenzofuran-2-ylmethyl]-N-(4-fluorobenzyl)-N'-(2,4,6-trifluorophenyl)urea] here?
**A.** The IC50 was 8.8 nM.

**Q.** `Cc1ccc2oc(CN(Cc3ccco3)C(=O)Nc3c(F)cc(F)cc3F)c(-c3ccc(Br)cc3)c2c1` [Example 5 - (15), N-[3-(4-Bromophenyl)-5-methylbenzofuran-2-ylmethyl]-N-furfuryl-N'-(2,4,6-trifluorophenyl)urea] was tested. Which IC50 did it give?
**A.** The IC50 was 8.9 nM.

**Q.** For `Cc1ccc2oc(CN(Cc3ccccc3)C(=O)Nc3c(F)cc(F)cc3F)c(-c3ccc(Cl)cc3)c2c1` [Example 6 - (2), N-Benzyl-N-[3-(4-chlorophenyl)-5-methylbenzofuran-2-ylmethyl]-N'-(2,4,6-trifluorophenyl)urea], which IC50 is on record?
**A.** Its IC50 is 7.4 nM.

**Q.** For `Cc1ccc(-c2c(CN(Cc3ccccc3)C(=O)Nc3c(F)cc(F)cc3F)oc3ccc(Cl)cc23)cc1` [Example 6 - (6), N-Benzyl-N-[5-chloro-3-(4-methylphenyl)benzofuran-2-ylmethyl]-N'-(2,4,6-trifluorophenyl)urea], which IC50 is on record?
**A.** Its IC50 is 8.4 nM.

**Q.** `Cc1ccc(CN(Cc2oc3ccc(C)cc3c2-c2ccc(Cl)cc2)C(=O)Nc2c(F)cc(F)cc2F)cc1` [Example 6 - (7), N-[3-(4-Chlorophenyl)-5-methylbenzofuran-2-ylmethyl]-N-(4-methylbenzyl)-N'-(2,4,6-trifluorophenyl)urea] was tested. Which IC50 did it give?
**A.** Its IC50 is 4.4 nM.
